The test system of experiment [1] is b.End3 cells. Put plainly: Internalization of CF by the cells in vitro, FACS. It is filed as cell-based, mouse. The note with it: equivalent to 0.5 μg/mL CF. The method, then:
b.End3 immortalized mouse brain capillary endothelium cells were kindly provided by Prof Philip Lazarovici (Institute for Drug Research, School of Pharmacy, The Hebrew University of Jerusalem, Israel). The b.End3 cells were cultured in DMEM medium supplemented with 10% fetal bovine serum, 2 mM L-Glutamine, 100 IU/mL penicillin and 100 μg/mL streptomycin (Biological Industries Ltd., Beit Haemek, Israel). The cells were maintained in an incubator at 37° C. in a humidified atmosphere with 5% CO2.
All the images were acquired using the same imaging settings and were not corrected or modified.
The inventors investigated whether this trend is still apparent in the interaction of magnetic and non-magnetic bolavesicles with brain capillary endothelial cells. To this end, the inventors used murine b.End3 cells, which are one of the most extensively used cell lines for brain uptake and permeability studies^25. […] Previously, the inventors extensively used ^b.End3 cells to analyze uptake and intracellular fate of bolavesicles encapsulating model proteins and marker compounds^8.

Experiment [2] concerns b.End3 cells. Put plainly: Internalization of CF by the cells in vitro, confocal fluorescence microscopy. It is filed as cell-based, mouse. The conditions noted are these: 5 h at 37° C.; FIG. 4.
Experimental: b.End3 cells were grown on 24-well plates or on coverslips (for FACS and fluorescence microscopy analysis, respectively). The medium was replaced with culture medium without serum and CF solution, or tested bolavesicles (equivalent to 0.5 μg/mL CF), or equivalent volume of the medium were added to the cells and incubated for 5 hr at 4° C. or at 37° C. At the end of the incubation, cells were extensively washed with complete medium and with PBS, and were either detached from the plates using trypsin-EDTA solution (Biological Industries Ltd., Beit Haemek, Israel) and analyzed by FACS (FACSCalibur Flow Cytometer, BD Biosciences, USA), or fixed with 2.5% formaldehyde in PBS, washed twice with PBS, mounted on slides using Mowiol-based mounting solution and analyzed using a FV1000-IX81 confocal microscope (Olympus, Tokyo, Japan) equipped with 60× objective. All the images were acquired using the same imaging settings and were not corrected or modified.

carboxyfluorescein [CF]: the “Internalization by b.End3 cells (FACS)” value in experiment [1] (5 hr at 4° C.) and in experiment [1] (5 hr at 37° C.) was “not able to internalize” throughout. Besides, the “Endocytosis of CF by b.End3 cells (confocal microscopy)” value in experiment [2] was “endocytosed by the bEnd.3 cells only when encapsulated within the bolavesicles”.

These data come from US20210106687A1, “BOLAAMPHIPHILIC COMPOUNDS, COMPOSITIONS AND USES THEREOF” (Lauren Sciences LLC, priority 2012, published 2021).
